According to patent US20040219202A1, “Pharmaceutical composition comprising lipids comprising a polar and a nonpolar moiety” (priority 2001, published 2004):

Columns and labels:
[1] = Net charge of cationic lipid; assay type: physicochemical; conditions: pH 7.4
Source text: The monoacetylenic analogues of DOPC, DOPE, DODAP and DOTAP were synthesised as described above. Standard lipids for comparisons (DOPC, DOPE and DOTAP (chloride salt)) were purchased from Sigma-Aldrich, Poole, Dorset, UK. Our invention the cationic, cholesterol-based lipid N^1-cholesteryloxycarbonyl-3,7-diazanononane-1,9-diamine (CDAN)—net charge=+1.6 at pH 7.4.CDAN (below) was synthesised by our group previously,^22 and is now available in a 1:1 molar ratio formulation with DOPE as Trojene™ (Avanti Polar Lipids, Inc., Alabaster, Ala., USA). [drawing 40]

C. tomentosicollis eggs = conditions: cited from earlier work
DNA topoisomerase I = molecular target: T1, DNA topoisomerase I (Homo sapiens, UniProt P11387); conditions: cited from earlier work
T1 sequence (P11387 1-765): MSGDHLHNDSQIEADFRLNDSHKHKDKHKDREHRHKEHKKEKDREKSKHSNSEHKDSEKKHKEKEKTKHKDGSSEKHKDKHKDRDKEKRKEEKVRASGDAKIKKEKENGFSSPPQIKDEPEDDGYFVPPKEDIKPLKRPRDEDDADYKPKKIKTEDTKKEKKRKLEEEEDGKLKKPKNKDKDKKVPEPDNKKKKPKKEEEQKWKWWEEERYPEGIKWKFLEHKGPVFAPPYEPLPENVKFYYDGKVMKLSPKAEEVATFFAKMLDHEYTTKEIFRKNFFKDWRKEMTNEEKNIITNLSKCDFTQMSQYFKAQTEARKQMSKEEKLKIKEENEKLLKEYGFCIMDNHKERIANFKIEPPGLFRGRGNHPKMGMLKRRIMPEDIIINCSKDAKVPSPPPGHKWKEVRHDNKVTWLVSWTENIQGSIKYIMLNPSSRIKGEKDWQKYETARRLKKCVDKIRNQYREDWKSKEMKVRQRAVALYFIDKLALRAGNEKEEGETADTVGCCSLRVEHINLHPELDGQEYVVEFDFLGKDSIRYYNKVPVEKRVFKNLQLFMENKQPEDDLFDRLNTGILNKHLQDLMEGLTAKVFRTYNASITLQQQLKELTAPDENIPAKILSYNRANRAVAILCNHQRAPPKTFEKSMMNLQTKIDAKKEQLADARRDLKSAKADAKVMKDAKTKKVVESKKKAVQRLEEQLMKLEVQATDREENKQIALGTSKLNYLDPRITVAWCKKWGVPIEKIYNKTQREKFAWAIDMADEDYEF

DNA = conditions: read-out: apparent DNA dissociation constant; cited from earlier work
DNA polymerase α = molecular target: T2, DNA polymerase α (Homo sapiens, UniProt P09884); conditions: cited from earlier work
T2 sequence (P09884 1-1462): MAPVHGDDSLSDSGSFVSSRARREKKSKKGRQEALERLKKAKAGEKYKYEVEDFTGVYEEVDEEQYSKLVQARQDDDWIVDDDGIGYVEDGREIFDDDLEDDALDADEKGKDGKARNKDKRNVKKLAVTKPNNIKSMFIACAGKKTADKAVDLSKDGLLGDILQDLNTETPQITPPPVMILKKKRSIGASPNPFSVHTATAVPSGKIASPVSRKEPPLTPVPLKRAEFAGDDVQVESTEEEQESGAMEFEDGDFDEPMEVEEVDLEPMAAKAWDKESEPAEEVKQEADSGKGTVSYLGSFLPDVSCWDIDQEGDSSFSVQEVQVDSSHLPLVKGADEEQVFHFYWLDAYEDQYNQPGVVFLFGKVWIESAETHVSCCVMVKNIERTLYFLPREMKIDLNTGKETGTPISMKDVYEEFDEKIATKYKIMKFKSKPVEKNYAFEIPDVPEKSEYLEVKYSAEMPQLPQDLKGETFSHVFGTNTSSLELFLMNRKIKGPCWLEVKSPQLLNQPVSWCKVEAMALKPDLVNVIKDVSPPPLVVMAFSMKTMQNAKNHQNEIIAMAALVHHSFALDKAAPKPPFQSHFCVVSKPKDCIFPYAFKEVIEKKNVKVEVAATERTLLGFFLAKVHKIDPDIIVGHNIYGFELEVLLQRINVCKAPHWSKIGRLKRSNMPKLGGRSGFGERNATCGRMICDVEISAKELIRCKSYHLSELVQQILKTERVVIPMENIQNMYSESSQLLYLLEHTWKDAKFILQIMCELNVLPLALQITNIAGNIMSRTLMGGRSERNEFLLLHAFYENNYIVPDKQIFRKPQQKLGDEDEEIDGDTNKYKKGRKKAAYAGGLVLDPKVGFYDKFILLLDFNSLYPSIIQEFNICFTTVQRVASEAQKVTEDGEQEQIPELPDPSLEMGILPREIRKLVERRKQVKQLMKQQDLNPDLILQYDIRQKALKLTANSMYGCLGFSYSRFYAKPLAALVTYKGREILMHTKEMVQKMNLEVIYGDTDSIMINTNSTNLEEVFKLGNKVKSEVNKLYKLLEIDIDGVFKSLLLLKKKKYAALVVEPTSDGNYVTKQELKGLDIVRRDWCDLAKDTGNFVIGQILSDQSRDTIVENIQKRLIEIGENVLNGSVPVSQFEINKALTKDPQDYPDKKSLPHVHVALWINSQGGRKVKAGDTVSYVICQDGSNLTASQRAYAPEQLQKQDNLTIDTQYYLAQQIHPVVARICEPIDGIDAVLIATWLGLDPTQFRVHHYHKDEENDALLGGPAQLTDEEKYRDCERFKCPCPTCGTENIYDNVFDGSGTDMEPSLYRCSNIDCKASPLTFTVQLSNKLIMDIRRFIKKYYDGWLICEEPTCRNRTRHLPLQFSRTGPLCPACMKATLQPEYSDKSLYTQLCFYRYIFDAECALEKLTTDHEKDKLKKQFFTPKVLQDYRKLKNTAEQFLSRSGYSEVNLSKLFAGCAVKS

[2] = molecular target: T3, Cytochrome P4504A4 (CYP4A4) (Oryctolagus cuniculus, UniProt P10611); conditions: cited from earlier work
T3 sequence (P10611 5-510): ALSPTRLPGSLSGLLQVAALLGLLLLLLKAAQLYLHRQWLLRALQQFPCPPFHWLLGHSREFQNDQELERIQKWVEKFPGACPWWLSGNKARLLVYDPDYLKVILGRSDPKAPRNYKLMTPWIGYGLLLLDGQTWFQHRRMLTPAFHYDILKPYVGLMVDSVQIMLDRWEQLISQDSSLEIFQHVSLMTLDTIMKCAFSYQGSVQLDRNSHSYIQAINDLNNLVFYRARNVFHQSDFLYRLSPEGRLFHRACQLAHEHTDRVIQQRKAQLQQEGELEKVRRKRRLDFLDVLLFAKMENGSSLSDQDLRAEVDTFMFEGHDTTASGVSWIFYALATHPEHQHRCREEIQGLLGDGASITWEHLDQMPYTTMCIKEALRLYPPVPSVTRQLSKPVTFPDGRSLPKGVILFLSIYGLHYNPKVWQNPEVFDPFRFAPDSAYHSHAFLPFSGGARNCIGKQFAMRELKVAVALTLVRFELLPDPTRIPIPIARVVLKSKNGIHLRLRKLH

cytochrome P4504A1 = molecular target: T4, cytochrome P4504A1 (Rattus norvegicus, UniProt P08516); conditions: cited from earlier work
T4 sequence (P08516 1-509): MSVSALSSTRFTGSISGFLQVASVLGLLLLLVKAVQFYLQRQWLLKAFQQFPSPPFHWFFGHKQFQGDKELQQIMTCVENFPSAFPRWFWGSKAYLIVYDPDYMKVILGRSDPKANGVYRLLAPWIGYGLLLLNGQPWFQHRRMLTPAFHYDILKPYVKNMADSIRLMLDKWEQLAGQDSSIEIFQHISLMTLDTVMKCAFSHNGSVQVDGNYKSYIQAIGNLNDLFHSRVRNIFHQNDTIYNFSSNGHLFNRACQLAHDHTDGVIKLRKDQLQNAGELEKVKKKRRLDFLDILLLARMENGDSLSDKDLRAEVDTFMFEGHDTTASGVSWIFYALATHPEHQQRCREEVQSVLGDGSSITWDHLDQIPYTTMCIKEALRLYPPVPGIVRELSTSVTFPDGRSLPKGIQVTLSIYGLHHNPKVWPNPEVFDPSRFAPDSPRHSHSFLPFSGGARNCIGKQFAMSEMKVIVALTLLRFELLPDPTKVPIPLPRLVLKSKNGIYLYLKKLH

[3] = system: ethanolamine-specific phospholipid base exchange reaction; conditions: rat liver microsomes; cited from earlier work
[4] = system: hepatic glutathione S-transferases; conditions: cited from earlier work
5-lipoxygenase = molecular target: T5, 5-lipoxygenase (Homo sapiens, UniProt P09917); conditions: cited from earlier work
T5 sequence (P09917 1-674): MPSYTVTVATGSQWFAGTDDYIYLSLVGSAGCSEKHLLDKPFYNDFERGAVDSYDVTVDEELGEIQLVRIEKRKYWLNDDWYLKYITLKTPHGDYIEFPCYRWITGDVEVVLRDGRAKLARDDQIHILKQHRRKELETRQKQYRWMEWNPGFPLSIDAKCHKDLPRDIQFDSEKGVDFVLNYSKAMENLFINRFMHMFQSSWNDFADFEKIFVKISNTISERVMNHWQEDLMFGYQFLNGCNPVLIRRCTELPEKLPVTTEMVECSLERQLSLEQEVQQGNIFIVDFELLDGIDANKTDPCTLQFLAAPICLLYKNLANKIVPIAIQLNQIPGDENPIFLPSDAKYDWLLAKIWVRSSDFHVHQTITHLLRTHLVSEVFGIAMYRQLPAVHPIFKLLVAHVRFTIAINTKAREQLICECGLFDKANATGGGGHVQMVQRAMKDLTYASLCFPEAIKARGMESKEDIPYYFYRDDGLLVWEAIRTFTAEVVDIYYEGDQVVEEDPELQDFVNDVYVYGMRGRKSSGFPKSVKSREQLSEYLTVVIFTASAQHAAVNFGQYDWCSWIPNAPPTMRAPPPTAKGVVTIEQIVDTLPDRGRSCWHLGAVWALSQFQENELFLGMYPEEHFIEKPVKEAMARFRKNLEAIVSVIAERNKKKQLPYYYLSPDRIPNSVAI

cyclo-oxygenase = conditions: cited from earlier work
Fe(III)-LOX = conditions: cited from earlier work

CC(C)CCC[C@@H](C)[C@H]1CC[C@H]2[C@@H]3CC=C4C[C@@H](OC(=O)NCCNCCCNCCN)CC[C@]4(C)[C@H]3CC[C@]12C [CDAN, N^1-cholesteryloxycarbonyl-3,7-diazanononane-1,9-diamine]
net charge [1]: +1.6

CCCCCCCCCCCCC#CCCCC(=O)O [Octadeca-5-ynoic acid]
Hatching of C. tomentosicollis eggs (C. tomentosicollis eggs): inhibits the hatching

CCCCCCCCC#CCCCCCCCC(=O)O [Octadeca-9-ynoic acid, octadeca-9-ynoic acid]
DNA topoisomerase I-mediated relaxation of a supercoiled plasmid DNA (DNA topoisomerase I): does not inhibit | topisomerase I-mediated DNA filter binding (DNA topoisomerase I): inhibits | Kd (DNA): 1800 µM | Inhibition of DNA polymerase α (DNA polymerase α): weakly inhibitory

C#CCCCCCCCCCCCCCCCC(=O)O [Octadeca-17-ynoic acid]
Inhibition of the substrate-binding pocket of CYP4A4 [2]: effective inhibitor

C#CCCCCCCCCC(=O)O [Undeca-10-ynoic acid]
Inhibition of cytochrome P4504A1 (cytochrome P4504A1): inhibitor | Ethanolamine-specific phospholipid base exchange reaction [3]: inhibits

CCCCCCCCC#CCC#CCC#CCCCC(=O)O [eicosa-5,8,11-triynoic acid]
Inhibition of mammalian hepatic glutathione S-transferases [4]: inhibits

CCCCCC#CC#CC#CCCCCCCC(=O)O [octadeca-8,10,12-triynoic acid]
Inhibition of 5-lipoxygenase (5-lipoxygenase): weak inhibitors | Inhibition of cyclo-oxygenase (cyclo-oxygenase): potent inhibitors

CCCCCC#CCC#CCCCCCCCC(=O)O [octadeca-9,12-diynoic acid]
Inactivation of Fe(III)-LOX (Fe(III)-LOX): irreversibly inactivates
